In patent publication US5506216A, “Cyclodextrin-biocide complex” (Boehringer Mannheim GmbH, priority 1993, dated 1996):
Read-outs that look alike come from different tables or passages of the source.

What was measured:
Assay in all cases: MIC of included and free biocides on agar
Assay type in all cases: cell-based
Conditions in all cases: for MIC: read-out: MIC of included and free biocides
[1] = tested on: Bacillus subtilis (gram +)
Protocol: (§1) The spectrum of activity of the individual biocide inclusion complexes was determined on bacteria (gram-positive and gram-negative strains), yeasts and fungi (see Table 1). The values are stated as MIC values (=minimum inhibitory concentration) in mg/ml.
(§2) The determination of the growth of the microorganisms was carried out on M121 medium (Sabouraud, 2% maltose nutrient agar (Merck)) for yeasts and fungi and on M130 medium (standard I nutrient agar (Merck)) for bacteria after 72 hours at 28° C. The amount of active substance in the CD inclusion compounds is less than 10%.

Candida albicans (yeast) = tested on: Candida albicans (yeast)
Protocol: as §1, §2

[2] = tested on: Escherichia coli (gram -)
Protocol: as §1, §2

[3] = tested on: Pseudomonas fluorescens (gram -)
Protocol: as §1, §2

[4] = tested on: Aspergillus oryzae (fungus)
Protocol: as §1, §2

[5] = tested on: Staphylococcus aureus (gram +)
Protocol: as §1, §2

[6] = M130 medium, 72 hours at 28° C., active substance in complexes <10%
[7] = M121 medium, 72 hours at 28° C., active substance in complexes <10%

Compound | MIC ([1]; 72 h) | MIC (Candida albicans (yeast); 72 h) | MIC ([2]; 72 h) | MIC ([3]; 72 h) | MIC ([4]; 72 h) | MIC ([5]; 72 h) | further results
1,2-benzisothiazolin-3-thion [Proxel] | – | – | – | – | – | – | MIC of included and free biocides [1, 6]: < 40 µg/mL; MIC of included and free biocides (Candida albicans (yeast); [7]): 40 µg/mL; MIC of included and free biocides [2, 6]: < 40 µg/mL; MIC of included and free biocides [3, 6]: < 40 µg/mL; MIC of included and free biocides [4, 7]: 75 µg/mL; MIC of included and free biocides [5, 6]: < 40 µg/mL
CNC(=O)c1ccccc1SSc1ccccc1C(=O)NC [Densil P, dithio-2,2'-bis(benzmethylamide)] | – | – | – | – | – | – | MIC [1, 6]: < 40 µg/mL; MIC (Candida albicans (yeast); [7]): 600 µg/mL; MIC [2, 6]: 75 µg/mL; MIC [3, 6]: 300 µg/mL; MIC [4, 7]: < 40 µg/mL; MIC [5, 6]: < 40 µg/mL
N#CSCSC#N [methylenebisthiocyanate] | 75 µg/mL | 20 µg/mL | < 40 µg/mL | < 40 µg/mL | 20 µg/mL | 17.5 µg/mL | –
Oc1ccccc1-c1ccccc1 [o-phenylphenol] | 1250 µg/mL | 600 µg/mL | 1250 µg/mL | 1250 µg/mL | 300 µg/mL | 1250 µg/mL | –
